In the supplement of paper PMC10307832:

Columns and labels:
Test in all cases: relative viability (nuclei count vs DMSO), 5 days (fraction); higher = more cells survive
[1] = system: NCI-H1395
Method in brief: (§1)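 Dosing by pin tool came one day after lung cancer cell lines were seeded in 1536-well plates, using either one drug or a fixed anchor-drug dose plus five library-drug doses (not always all listed) in √10 steps. After 5 days, nuclei were counted on 4× images. Relative viability is treated-well nuclei count divided by vehicle-well nuclei count, and values are medians of duplicate plates.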

[2] = system: HARA
Method in brief: as §1

[3] = system: NCI-H2009
Method in brief: as §1

[4] = system: COR-L 105
Method in brief: as §1

[5] = system: CAL-12T
Method in brief: as §1

[6] = system: NCI-H1437
Method in brief: as §1

[7] = system: LCLC-103H
Method in brief: as §1

[8] = system: NCI-H460
Method in brief: as §1

[9] = system: HOP-62
Method in brief: as §1

[10] = system: EMC-BAC-2
Method in brief: as §1

[11] = system: HCC-366
Method in brief: as §1

[12] = system: NCI-H1975
Method in brief: as §1

Work on `Clc1ccc(Nc2nnc(Cc3ccncc3)c3ccccc23)cc1` [Vatalanib] + CS(=O)(=O)N1CCN(Cc2cc3nc(-c4cccc5[nH]ncc45)nc(N4CCOCC4)c3s2)CC1 [Pictilisib] (partner 1 µM) yielded a relative viability ([1]; first compound 0.1265 µM) of 0.55, a relative viability ([1]; first compound 0.4 µM) of 0.525 and a relative viability ([1]; first compound 1.265 µM) of 0.538. For the same compound, the relative viability ([1]; first compound 4 µM) was 0.616, the relative viability ([2]; first compound 0.04 µM) was 0.555 and the relative viability ([2]; first compound 0.1265 µM) was 0.414. It also gave a relative viability ([2]; first compound 0.4 µM) of 0.351, a relative viability ([2]; first compound 1.265 µM) of 0.454 and a relative viability ([2]; first compound 4 µM) of 0.369. For the same compound, the relative viability ([3]; first compound 0.04 µM) was 0.977, the relative viability ([3]; first compound 0.1265 µM) was 0.656 and the relative viability ([3]; first compound 0.4 µM) was 0.833. The relative viability ([3]; first compound 1.265 µM) was 0.798, the relative viability ([3]; first compound 4 µM) was 0.885 and the relative viability ([4]; first compound 0.04 µM) was 0.361. It also gave a relative viability ([4]; first compound 0.1265 µM) of 0.4, a relative viability ([4]; first compound 0.4 µM) of 0.276 and a relative viability ([4]; first compound 1.265 µM) of 0.359. For the same compound, the relative viability ([4]; first compound 4 µM) was 0.377, the relative viability ([5]; first compound 0.04 µM) was 0.238 and the relative viability ([5]; first compound 0.1265 µM) was 0.39. The relative viability ([5]; first compound 1.265 µM) was 0.446, the relative viability ([5]; first compound 4 µM) was 0.463 and the relative viability ([6]; first compound 0.04 µM) was 0.49. It also gave a relative viability ([6]; first compound 0.1265 µM) of 0.456, a relative viability ([6]; first compound 0.4 µM) of 0.518 and a relative viability ([6]; first compound 1.265 µM) of 0.432. It also gave a relative viability ([6]; first compound 4 µM) of 0.432, a relative viability ([7]; first compound 0.04 µM) of 0.6 and a relative viability ([7]; first compound 0.1265 µM) of 0.606. It also gave a relative viability ([7]; first compound 0.4 µM) of 0.55, a relative viability ([7]; first compound 1.265 µM) of 0.596 and a relative viability ([7]; first compound 4 µM) of 0.714. It also gave a relative viability ([8]; first compound 0.04 µM) of 0.361, a relative viability ([8]; first compound 0.1265 µM) of 0.356 and a relative viability ([8]; first compound 0.4 µM) of 0.378. For the same compound, the relative viability ([8]; first compound 1.265 µM) was 0.352, the relative viability ([8]; first compound 4 µM) was 0.312 and the relative viability ([9]; first compound 0.04 µM) was 0.758. It also gave a relative viability ([9]; first compound 0.4 µM) of 0.632, a relative viability ([9]; first compound 1.265 µM) of 0.702 and a relative viability ([9]; first compound 4 µM) of 0.713. The relative viability ([10]; first compound 0.04 µM) was 0.559, the relative viability ([10]; first compound 0.1265 µM) was 0.556 and the relative viability ([10]; first compound 0.4 µM) was 0.572. It also gave a relative viability ([10]; first compound 1.265 µM) of 0.533, a relative viability ([10]; first compound 4 µM) of 0.525 and a relative viability ([11]; first compound 0.04 µM) of 0.137. The relative viability ([11]; first compound 0.1265 µM) was 0.196, the relative viability ([11]; first compound 0.4 µM) was 0.131 and the relative viability ([11]; first compound 1.265 µM) was 0.0986. For the same compound, the relative viability ([11]; first compound 4 µM) was 0.11, the relative viability ([12]; first compound 0.04 µM) was 0.277 and the relative viability ([12]; first compound 0.1265 µM) was 0.322. The relative viability ([12]; first compound 0.4 µM) was 0.32, the relative viability ([12]; first compound 1.265 µM) was 0.258 and the relative viability ([12]; first compound 4 µM) was 0.287.
